Experimental data taken from article PMC8584989 (International Journal of Molecular Sciences, 2021).
Where two headings read alike, the source gives them in different places.

How the values were obtained:
[1] = system: CYP3A4; settings: DI study in healthy subjects; cited from earlier work
[2] = XTT proliferation / drug combination assay; settings: human
[3] = molecular target: T1, CYP2B6 (Homo sapiens, UniProt P20813); assay: Vivid CYP450 Screening Kit, recombinant CYP2B6; type: in vitro ADME; settings: recombinant enzyme; read-out: CYP2B6 inhibition IC50
T1 construct: purchased Thermo Fisher Scientific
Method: (§1) CYP inhibitory assay was performed using Vivid CYP450 screening kit as described previously. The kits consist of microsomal fraction containing human CYP isoforms, human CYP reductase and in several cases cytochrome b5. Experiments were performed following the manufacturer’s protocol on black 96-well plates using kinetic mode. […] Then, the master mix (CYP isoenzyme with an NADPH regeneration system in buffer) was added in each well and plate was pre-incubated for 10 min. The reaction was started with the mixture of NADP^+ and Vivid substrate and the fluorescence of samples was measured in 1 min interval for 60 min using an Infinite M200 Pro microplate reader (Tecan, Männedorf, Switzerland). Data from linear phase (15 min) were used for data evaluation.

[4] = MTT proliferation / drug combination assay; settings: human
[5] = molecular target: ABCC1 (Homo sapiens, UniProt P33527); assay: Inhibitory accumulation assay in MDCKII-ABCC1 cells; type: cell-based
Method: (§2) Accumulation assays were performed as described previously. […] The daunorubicin and mitoxantrone accumulation assays were performed in above mentioned cell lines and were also adopted to primary NSCLC cultures. […] Cells were incubated up to 70-80% confluence for approximately 24 h. […] The cells there trypsinized on ice, resuspended with 2% FBS in cold PBS solution and then fluorescence was detected using flow cytometer (BD FACSCanto II, Allschwil, Switzerland). […] For data presentation, the ratios of relative fluorescence units (RFUs) from treated samples to RFUs from vehicle-treated (control) cells were computed generating “relative substrate accumulation”.

[6] = molecular target: T2, CYP2D6 (Homo sapiens, UniProt P10635); assay: Vivid CYP450 Screening Kit, recombinant CYP2D6; type: in vitro ADME
T2 construct: purchased Thermo Fisher Scientific
Method: as §1

[7] = molecular target: ABCB1 (Homo sapiens, UniProt P08183); settings: DI study in healthy subjects; cited from earlier work
[8] = molecular target: T3, CYP2C9 (Homo sapiens, UniProt P11712); assay: Vivid CYP450 Screening Kit, recombinant CYP2C9; type: in vitro ADME; settings: recombinant enzyme; read-out: CYP2C9 inhibition IC50
T3 construct: purchased Thermo Fisher Scientific
Method: as §1

[9] = system: HL60-par cells; assay: XTT proliferation / drug combination assay; type: cell-based; settings: 48 h, read-out: HL60-par IC50
Method: These colorimetric assays were used in various studies presented in this paper (prior induction studies, MDR reversal experiments and comparative viability assays) and were performed as reported previously. […] In MTT experiments, cells were seeded on a 96-well culture plate at densities (in number of cells/well) of 1.3 × 10^4 for MDCKII-par, MDCKII-ABCB1 and MDCKII-ABCG2; 1.2 × 10^4 for A431-par, A431-ABCB1, A431-ABCG2 and A431-ABCC1; 1.2 × 10^4 for NCI-H1299; 1.0 × 10^4 for A459; 2.0 × 10^4 for Caco-2; 5.0 × 10^4 for LS174T; and 1.0 × 10^4 for primary NSCLC explants. On the other hand, for XTT cells were seeded with densities 2.0 × 10^4 for HL60-par, HL60-ABCB1, HL60-ABCG2 and HL60-ABCC1 cells/well on 96-well plates. […] Following 48 h incubation with drugs, Opti-MEM solutions of MTT or XTT (1 mg/mL) with phenazine methosulfate solution (7.50 μg/mL; only for XTT) was added and the cells were incubated for 1 h with the exception of HL60s that were incubated for 5 h.
Based on the computed CI values, the effects of drug combinations were classified as synergistic (CI < 0.9), additive (0.9 < CI < 1.1) or antagonistic (CI > 1.1).

[10] = molecular target: T4, ABCG2 (Homo sapiens, UniProt Q9UNQ0); assay: Inhibitory accumulation assay in MDCKII-ABCG2 cells; type: cell-based
T4 sequence (Q9UNQ0 1-655): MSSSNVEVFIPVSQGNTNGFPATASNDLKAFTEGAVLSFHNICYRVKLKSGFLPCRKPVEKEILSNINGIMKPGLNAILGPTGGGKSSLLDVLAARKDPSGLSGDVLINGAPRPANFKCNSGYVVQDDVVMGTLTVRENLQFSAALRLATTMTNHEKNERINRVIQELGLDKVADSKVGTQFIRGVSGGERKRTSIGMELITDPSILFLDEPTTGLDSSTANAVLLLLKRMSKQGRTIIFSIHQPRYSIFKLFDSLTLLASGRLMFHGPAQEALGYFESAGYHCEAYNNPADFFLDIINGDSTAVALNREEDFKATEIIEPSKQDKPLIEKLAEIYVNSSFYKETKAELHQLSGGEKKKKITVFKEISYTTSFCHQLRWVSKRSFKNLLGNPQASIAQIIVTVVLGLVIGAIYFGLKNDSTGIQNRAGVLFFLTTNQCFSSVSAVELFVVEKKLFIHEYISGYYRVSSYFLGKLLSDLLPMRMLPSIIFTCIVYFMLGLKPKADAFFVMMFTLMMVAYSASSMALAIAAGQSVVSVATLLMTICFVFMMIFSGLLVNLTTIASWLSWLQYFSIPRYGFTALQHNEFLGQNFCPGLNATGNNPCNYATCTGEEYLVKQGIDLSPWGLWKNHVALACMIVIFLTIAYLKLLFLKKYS
Method: as §2

Sequence of ABCC1 (P33527 whole entry): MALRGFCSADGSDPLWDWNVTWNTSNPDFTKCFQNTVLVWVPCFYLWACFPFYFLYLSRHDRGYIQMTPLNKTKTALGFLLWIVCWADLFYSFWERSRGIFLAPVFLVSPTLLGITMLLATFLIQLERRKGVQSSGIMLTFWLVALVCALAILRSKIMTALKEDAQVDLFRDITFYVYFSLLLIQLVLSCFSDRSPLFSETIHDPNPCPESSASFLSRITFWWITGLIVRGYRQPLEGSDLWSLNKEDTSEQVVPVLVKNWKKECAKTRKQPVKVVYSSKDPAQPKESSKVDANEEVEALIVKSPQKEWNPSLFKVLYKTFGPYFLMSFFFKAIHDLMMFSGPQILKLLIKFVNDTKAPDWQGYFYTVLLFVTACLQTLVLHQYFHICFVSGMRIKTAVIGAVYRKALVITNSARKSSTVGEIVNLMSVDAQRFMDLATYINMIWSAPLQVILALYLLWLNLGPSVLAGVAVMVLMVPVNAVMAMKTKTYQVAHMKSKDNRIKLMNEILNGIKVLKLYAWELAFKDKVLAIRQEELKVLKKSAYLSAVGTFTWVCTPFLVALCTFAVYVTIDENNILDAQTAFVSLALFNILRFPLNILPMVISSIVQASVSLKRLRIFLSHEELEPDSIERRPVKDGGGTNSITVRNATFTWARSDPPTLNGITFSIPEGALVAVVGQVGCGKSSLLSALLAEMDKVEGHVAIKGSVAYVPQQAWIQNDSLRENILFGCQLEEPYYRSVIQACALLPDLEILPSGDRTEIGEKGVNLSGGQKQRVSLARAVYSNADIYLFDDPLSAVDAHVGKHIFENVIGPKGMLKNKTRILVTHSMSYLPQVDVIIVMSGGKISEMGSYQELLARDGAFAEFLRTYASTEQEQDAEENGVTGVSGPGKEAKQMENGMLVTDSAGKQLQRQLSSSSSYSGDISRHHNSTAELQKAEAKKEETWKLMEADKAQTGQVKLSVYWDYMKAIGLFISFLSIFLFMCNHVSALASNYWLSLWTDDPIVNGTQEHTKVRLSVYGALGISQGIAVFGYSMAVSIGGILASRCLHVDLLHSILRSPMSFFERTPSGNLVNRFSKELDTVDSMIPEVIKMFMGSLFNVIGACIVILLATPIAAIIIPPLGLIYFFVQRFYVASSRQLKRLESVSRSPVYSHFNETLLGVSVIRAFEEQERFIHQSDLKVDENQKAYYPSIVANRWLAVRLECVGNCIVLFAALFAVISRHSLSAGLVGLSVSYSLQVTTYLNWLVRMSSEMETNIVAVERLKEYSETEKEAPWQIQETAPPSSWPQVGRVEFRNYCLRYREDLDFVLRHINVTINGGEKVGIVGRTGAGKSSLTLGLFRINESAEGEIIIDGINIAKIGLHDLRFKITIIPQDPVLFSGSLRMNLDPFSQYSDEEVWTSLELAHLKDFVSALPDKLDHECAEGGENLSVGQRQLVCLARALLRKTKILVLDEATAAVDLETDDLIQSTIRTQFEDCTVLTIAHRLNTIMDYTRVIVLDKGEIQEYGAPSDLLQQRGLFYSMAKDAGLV
T1 sequence (P20813 whole entry): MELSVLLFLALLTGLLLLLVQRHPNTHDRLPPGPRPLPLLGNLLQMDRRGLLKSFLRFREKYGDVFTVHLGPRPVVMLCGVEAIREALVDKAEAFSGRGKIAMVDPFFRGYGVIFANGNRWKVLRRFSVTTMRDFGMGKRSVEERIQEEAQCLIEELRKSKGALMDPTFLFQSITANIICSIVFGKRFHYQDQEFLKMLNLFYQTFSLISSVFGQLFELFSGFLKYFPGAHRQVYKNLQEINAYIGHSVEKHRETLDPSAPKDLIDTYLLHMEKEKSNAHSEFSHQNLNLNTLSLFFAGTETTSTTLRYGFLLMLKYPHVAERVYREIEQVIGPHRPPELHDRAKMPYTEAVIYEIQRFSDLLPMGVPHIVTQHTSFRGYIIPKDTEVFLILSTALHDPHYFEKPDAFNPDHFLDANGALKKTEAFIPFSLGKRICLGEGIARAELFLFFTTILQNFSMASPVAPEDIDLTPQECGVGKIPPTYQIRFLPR
T3 sequence (P11712 whole entry): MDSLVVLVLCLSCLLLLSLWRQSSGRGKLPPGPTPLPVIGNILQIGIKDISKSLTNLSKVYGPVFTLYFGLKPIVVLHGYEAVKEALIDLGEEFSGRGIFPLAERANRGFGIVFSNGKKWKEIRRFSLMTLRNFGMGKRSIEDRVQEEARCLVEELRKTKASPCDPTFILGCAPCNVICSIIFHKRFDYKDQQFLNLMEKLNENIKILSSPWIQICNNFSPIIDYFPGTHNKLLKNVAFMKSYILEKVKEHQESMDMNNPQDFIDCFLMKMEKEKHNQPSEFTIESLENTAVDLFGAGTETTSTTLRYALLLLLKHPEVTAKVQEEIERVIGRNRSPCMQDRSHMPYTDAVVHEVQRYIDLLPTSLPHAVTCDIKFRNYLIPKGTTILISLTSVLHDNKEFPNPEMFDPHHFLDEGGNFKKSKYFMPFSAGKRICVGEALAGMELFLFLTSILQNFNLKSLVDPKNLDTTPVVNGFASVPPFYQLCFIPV
Sequence of ABCB1 (P08183 whole entry): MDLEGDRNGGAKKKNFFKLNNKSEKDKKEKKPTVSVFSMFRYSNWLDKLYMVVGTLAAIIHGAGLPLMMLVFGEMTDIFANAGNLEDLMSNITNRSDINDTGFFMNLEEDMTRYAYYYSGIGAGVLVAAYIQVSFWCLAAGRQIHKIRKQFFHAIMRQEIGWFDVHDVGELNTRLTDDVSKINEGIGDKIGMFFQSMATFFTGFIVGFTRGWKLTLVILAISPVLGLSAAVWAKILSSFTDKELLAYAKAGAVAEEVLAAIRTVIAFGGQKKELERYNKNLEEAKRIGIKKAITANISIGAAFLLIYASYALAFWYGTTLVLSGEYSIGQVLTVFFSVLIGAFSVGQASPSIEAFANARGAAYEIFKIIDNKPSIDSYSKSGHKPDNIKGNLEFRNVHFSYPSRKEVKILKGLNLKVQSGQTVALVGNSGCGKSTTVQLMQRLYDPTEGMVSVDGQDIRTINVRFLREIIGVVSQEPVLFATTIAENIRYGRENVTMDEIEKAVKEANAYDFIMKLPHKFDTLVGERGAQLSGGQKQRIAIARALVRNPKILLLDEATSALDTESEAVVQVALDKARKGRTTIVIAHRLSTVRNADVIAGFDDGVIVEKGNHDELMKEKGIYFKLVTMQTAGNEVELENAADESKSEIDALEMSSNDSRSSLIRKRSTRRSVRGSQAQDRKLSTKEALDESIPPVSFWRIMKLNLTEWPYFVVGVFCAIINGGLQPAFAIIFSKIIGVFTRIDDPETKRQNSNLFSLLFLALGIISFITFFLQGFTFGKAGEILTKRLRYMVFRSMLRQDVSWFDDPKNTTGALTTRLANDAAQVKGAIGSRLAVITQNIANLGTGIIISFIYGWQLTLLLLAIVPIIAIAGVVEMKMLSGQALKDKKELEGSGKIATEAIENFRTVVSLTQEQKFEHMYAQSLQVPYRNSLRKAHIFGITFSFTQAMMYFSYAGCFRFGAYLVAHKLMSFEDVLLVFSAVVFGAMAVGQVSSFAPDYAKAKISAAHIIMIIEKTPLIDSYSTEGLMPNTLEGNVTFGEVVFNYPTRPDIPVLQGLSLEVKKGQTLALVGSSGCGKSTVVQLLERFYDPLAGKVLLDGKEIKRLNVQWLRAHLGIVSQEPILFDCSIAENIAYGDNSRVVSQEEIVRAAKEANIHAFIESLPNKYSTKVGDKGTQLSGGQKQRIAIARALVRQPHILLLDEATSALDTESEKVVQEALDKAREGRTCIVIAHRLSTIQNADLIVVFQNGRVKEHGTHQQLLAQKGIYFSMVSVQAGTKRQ
T2 sequence (P10635 whole entry): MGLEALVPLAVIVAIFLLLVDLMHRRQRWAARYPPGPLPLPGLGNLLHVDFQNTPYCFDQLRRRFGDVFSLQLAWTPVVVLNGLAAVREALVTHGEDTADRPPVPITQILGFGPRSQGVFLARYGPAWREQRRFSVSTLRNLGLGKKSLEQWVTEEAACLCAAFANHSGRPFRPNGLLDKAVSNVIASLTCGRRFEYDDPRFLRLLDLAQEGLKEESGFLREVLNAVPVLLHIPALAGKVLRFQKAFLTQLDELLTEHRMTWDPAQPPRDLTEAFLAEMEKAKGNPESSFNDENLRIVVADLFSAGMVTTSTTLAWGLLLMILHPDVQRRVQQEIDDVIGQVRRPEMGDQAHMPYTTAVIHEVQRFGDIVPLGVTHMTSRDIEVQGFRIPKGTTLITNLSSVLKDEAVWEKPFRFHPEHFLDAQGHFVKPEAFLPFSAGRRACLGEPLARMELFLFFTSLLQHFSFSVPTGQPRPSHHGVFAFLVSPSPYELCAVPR

CN1CCC(COc2cnc(-c3cccc(Cn4nc(-c5cccc(C#N)c5)ccc4=O)c3)nc2)CC1 [tepotinib, Tepotinib]
Effect on CYP3A4 substrate midazolam [1]: failed to exert the effect
IC50 at 48 h [2]: 19.6 µM
IC50 [3]: > 50 µM
IC50 at 48 h [4]: 16.5 µM
IC50 ([5]; 2 µM calcein AM, read-out: IC50, relative calceinAM accumulation): 24.5 µM
IC50 ([5]; 2 µM daunorubicin, 1 h, read-out: IC50, relative daunorubicin accumulation): > 50 µM
IC50 [6]: > 50 µM
Effect on AUC and Cmax of ABCB1 substrate dabigatran etexilate [7]: significantly increased AUC and Cmax
IC50 [8]: 1.7 µM
IC50 [9]: 19.5 µM
IC50 ([10]; 5 µM mitoxantrone, 1 h, read-out: IC50, relative mitoxantrone accumulation): 29.9 µM
IC50 ([10]; 8 µM hoechst 33342, read-out: IC50, relative Hoechst 33342 accumulation): 15.8 µM
